Values quoted from earlier work, collected in patent US8377476B2, “Butenafine hydrochloride-containing aqueous patch” (Teikoku Seiyaku Co., Ltd., priority 2008, dated 2013).
Where a name gives a salt, the structure may show the parent alone. Read-outs that look alike come from different tables or passages of the source.

- Water-solubility (hydrochloride): low water-solubility
- Water-solubility (listed as Butenafine hydrochloride): extremely poor water-solubility
Structure (SMILES): CN(Cc1ccc(C(C)(C)C)cc1)Cc1cccc2ccccc12 [butenafine hydrochloride]
